Assay results published in patent publication US20180185520A1, “COLLAGEN IMAGING COMPOSTIONS” (Collagen Medical, LLC, priority 2015, published 2018).

Columns and labels:
[1] = molecular target: T1, rat collagen (acid soluble, type I, rat tail) (Rattus norvegicus, UniProt P02454+P02466); experiment: Collagen binding assay, dried rat collagen in microtiter plate; conditions: 37° C., pH 7.4
T1 construct: purchased Millipore Inc 08-115; host or cells: rat tail
Procedure: 10 ml of a 3.79 mg/mL solution of rat collagen (acid soluble, type I, rat tail, Millipore Inc, cat#08-115) is dialyzed against 10 mM Phosphate (NaH2PO4), pH 4.2 at 4° C. with three changes of the dialysis buffer.
Ice-cold 1×PBS pH 10.8 is added to the collagen solution for a final collagen concentration of 10 μM, pH 7.4. Collagen solutions are gelled and dried down in the wells of a 96 well microtiter plate (Corning Polystyrene Flat Bottom, cat#3641). 70 μl of 10 μM collagen is aliquoted into each well in every other lane in the plate (48 wells) and the plate is incubated at 37° C. for 18 hours to form a gel and evaporate to dryness. […] The final well content of gelled collagen is measured by determination of hydroxyproline and is around 180 μg/ml.
a serial dilution of 0.2 μM-30 μM of the peptide chelate is prepared in PBS, pH 7.4 ([…], of solution for each concentration). […] The concentration of free, unbound compound in the sample supernatants and the concentration of compound in the reserved (total) sample are determined by ICP-MS (Agilent 7500, gadolinium concentration). The concentration of compound bound to collagen is determined as [bound]=[total]−[unbound].
The binding of compounds to human, rat and dog collagen (5 μM) was measured over the concentration range 0.2-5 μM of Comp ID Nos.: 1-4. […]

[2] = tested on: myocardium; assay type: in vivo; conditions: Compound ID No. 1 7.5 μmol/kg (canine) vs EP-3600 12.3 μmol/kg (pig)
Procedure: To mimic severe ischemia, a canine model was used in which an inflatable variable vascular occluder was placed around the left anterior descending coronary artery (LAD) to allow occlusion and reperfusion. Imaging was performed on a 3T clinical scanner 4 days after implantation of the occluder. The conventional saturation recovery pulse sequence for stress perfusion imaging was compared with a segmented inversion method. The purpose of the segmented inversion method was to leverage the steady-state properties of Compound ID No. 1. This segmented inversion recovery pulse sequence provides greater T1 weighting, higher spatial resolution, and greater myocardial tissue contrast. Additionally, since imaging is delayed, the entire heart can be imaged. After baseline […] scanning, the balloon was inflated. […]
To assess relative perfusion, labeled microspheres were administered at 3 timepoints in the study. […] At autopsy under ultraviolet light, the hypo-perfused myocardium was differentiated from normal myocardium due to the lack of fluorescence in the hypo-perfused tissue. Based on the fluorescence, a sample of the ischemic territory and a sample of the remote myocardium were taken for ex vivo analysis. These tissue samples were weighed, digested in nitric acid, and analyzed for the elements La, Au, Lu (the three microsphere injections) and gadolinium (Compound ID No. 1) using ICP-MS. […]

Kd [1]: 21.1 µM
Compound: CC(C)C[C@H](NC(=O)[C@@H]1CSSC[C@H](NC(=O)[C@H](Cc2c[nH]cn2)NC(=O)[C@H](Cc2c[nH]c3ccccc23)NC(=O)[C@H](CCCCNC(=O)CC[C@H](C(=O)O)N2CCN(CC(=O)O)CCN(CC(=O)O)CCN(CC(=O)O)CC2)NC(=O)CNC(=O)CC[C@H](C(=O)O)N2CCN(CC(=O)O)CCN(CC(=O)O)CCN(CC(=O)O)CC2)C(=O)N[C@@H]([C@@H](C)O)C(=O)N[C@@H]([C@@H](C)O)C(=O)N[C@@H](CCCCNC(=O)CC[C@H](C(=O)O)N2CCN(CC(=O)O)CCN(CC(=O)O)CCN(CC(=O)O)CC2)C(=O)N[C@@H](Cc2ccccc2)C(=O)N2CCC[C@H]2C(=O)N[C@@H](Cc2c[nH]cn2)C(=O)N[C@@H](Cc2c[nH]cn2)C(=O)N[C@@H](Cc2ccc(O)cc2)C(=O)N1)C(=O)N[C@@H](Cc1ccc(O)cc1)C(=O)N[C@@H](Cc1ccc(-c2ccccc2)cc1)C(N)=O [Compound ID No. 1]
ΔCNR relative to EP-3600 (fold higher) [2]: 3 to 4 fold
